Consider one compound from US20120329803A1, “Dihydropteridinones, method for production and use thereof” (BOEHRINGER INGELHEIM INTERNATIONAL GMBH, priority 2010, published 2012).

pEC50, pIC50: −log10 of the molar value. Several values for one entry are separate records, joined by “and”; a condition that tells them apart may be missing. Identical values can stand only once. Like-named read-outs stand apart in the source and are kept apart here.

Assay [1] relates to HCT 116 human colorectal carcinoma cells. Description: Alamar Blue cell proliferation assay, HCT 116. The settings on record: HCT 116 cells, 72 h. In kind it is cell-based. As to the method: (§1) Kinase assays are performed using full-length recombinant Plk1 enzyme produced in a baculovirus expression system and casein from bovine milk as a substrate. Results represent the means of 2 independent experiments with each data point measured in duplicate. NCI-H460 human non-small cell lung cancer and HCT 116 human colon carcinoma cell lines are used in Alamar Blue™ based proliferation assays. Results represent the means of 3 dose titrations for each cell line with each data point measured in duplicate. Two independent kinase assay experiments are carried out to determine the inhibitory activity of compound (12B) on the Plk1 enzyme. 7 concentrations of compound (12B) are used and each concentration is tested in duplicate measurements.
(§2) For each cell line a proliferation assay experiment is carried out to determine the EC50 values in triplicate. 12 concentrations of each compound are used and each concentration is tested in duplicate measurements.
(§3) HCT 116 human colorectal carcinoma (ATCC CCL 247) and NCI-H460 human lung carcinoma (ATCC HTB-177) cells are used in an Alamar Blue™ based proliferation assay.
(§4) The Alamar Blue™ assay is designed to quantitatively measure the proliferation of cells by incorporating a fluorometric/colorimetric growth indicator that is based on the detection of metabolic activity in viable cells.
(§5) HCT 116 and NCI-H460 cells are grown in IMDM medium containing 10% FCS and 2 mM L-glutamine. They are maintained at 37° C. and 5% CO2 in a humidified atmosphere with a split ratio of 1:5. For proliferation assays in the 96-well format, penicillin-streptomycin is added to the medium at a final concentration of 100 u/ml penicillin and 100 μg/ml streptomycin.
(§6) On day one of the experiment, 1000 cells in 180 μl medium are seeded into each well of a sterile 96-well flat-bottom plate. The plates are kept in the incubator overnight. The compounds are dissolved in DMSO at a concentration of 1000 μM. On day two of the experiment, 12 serial dilutions (1:3) of the compounds are prepared in medium containing 0.1% DMSO. 20 μl of the dilutions are added to each well to yield a final volume of 200 μl per well. As a control, medium containing 0.1% DMSO is added to the designated wells. The cells are then incubated for 72 h. After this incubation period, 20 μl of Alamar Blue™ is added to each well. After 6 h of incubation, the plates are measured in a fluorescence spectrophotometer (excitation 531 nm, emission 595 nm, slits 15, integrate time 0.1). All data points are measured in duplicates.
(§7) The mean value from the duplicates is taken and the background is subtracted. The “0.1% DMSO value” (the mean value obtained from wells containing cells plus 0.1% DMSO containing medium) is taken as “100% control”. […]
(In general: Resazurin is reduced to fluorescent resorufin, in cell work by metabolically active cells.)

Assay [2] concerns NCI-H460 human lung carcinoma cells. Description: Alamar Blue cell proliferation assay, NCI-H460. In kind it is cell-based. The settings on record: 72 h. The method, then: as §1, §2, §3, §4, §5, §6, §7
A further assay deals with T1, hERG channel (Homo sapiens, UniProt Q12809).
T1 construct: expressed in transfected cells; host or cells: HEK293 cells, stably transfected; cDNA from M. Sanguinetti, University of Utah
Description: hERG channel assay (whole-cell patch clamp). The format is cell-based. The settings on record: HEK 293 cells stably transfected with hERG; 0.3, 1, 3, 10 μM tested; read-out: residual currents value (half-inhibitory concentration from fit to residual hERG current). As to the method: HEK (human embryonic kidney) 293 cells are stably transfected with hERG cDNA (obtained courtesy of M. Sanguinetti, University of Utah). Cells determined for use in patch clamp experiments are plated on glass coverslips in 24 well plates and are cultivated without antibiotic during this time.
Coverslips are placed at the bottom of a 2 mL perfusion chamber mounted on the stage of an inverted microscope. Cells are superfused with a bath solution containing (mM): NaCl (137), KCl (4.0), MgCl2 (1.0), CaCl2 (1.8), Glucose (10), HEPES (10), pH 7.4 with NaOH. […]
Membrane currents are recorded using an EPC-10 or equivalent patch clamp amplifier (HEKA Electronics, Lambrecht, FRG) using the whole-cell configuration of the patch-clamp technique. hERG-mediated inactivating tail currents are elicited using a brief hyperpolarising pulse after channel inactivation at a depolarised potential.
Four concentrations of the compound of formula (12B) according to the present invention (0.3, 1, 3, 10 μM) are applied on different cells. A steady state level of baseline current is measured prior to the application of the test article. […]
Peak current amplitudes are measured for each hyperpolarising step. […] Residual currents (I/Io) are calculated for each cell as the fraction of actual average peak current and average baseline peak current. Current inhibition is expressed as (1−I/I0)*100%. […]
In general terms: hERG is a cardiac potassium channel; its block is linked to QT prolongation.

A further assay addresses T2, human Plk1 enzyme (Homo sapiens, UniProt P53350).
T2 construct: The full-length coding region of the human Plk1 enzyme (residues 1-603); made in house; host or cells: Sf21 insect cells, baculovirus (pAcG2T vector, BD Biosciences)
Description: Plk1 low enzyme inhibition (kinase) assay. In kind it is biochemical. The settings on record: casein substrate, 7.5 μM ATP. The method, then:
as §1
The compound is dissolved in DMSO at a concentration of 10 mM. For the proliferation assay and the first kinase assay the compound is freshly dissolved. For the second kinase assay a 10 mM stock solution in DMSO is used.
A baculoviral expression system is used to generate full-length recombinant Plk1 enzyme for the assay. Casein from bovine milk is used as a substrate. All other reagents are from the highest grade of purity commercially available. […]

Where [3] appears, read: measurement 1, read-out: Measurement 1 EC50.
The mark [4] stands for this setting: measurement 2, read-out: Measurement 2 EC50.
The mark [5] stands for this setting: measurement 3, read-out: Measurement 3 EC50.

T2 sequence (P53350 whole entry, the tested form may be a part): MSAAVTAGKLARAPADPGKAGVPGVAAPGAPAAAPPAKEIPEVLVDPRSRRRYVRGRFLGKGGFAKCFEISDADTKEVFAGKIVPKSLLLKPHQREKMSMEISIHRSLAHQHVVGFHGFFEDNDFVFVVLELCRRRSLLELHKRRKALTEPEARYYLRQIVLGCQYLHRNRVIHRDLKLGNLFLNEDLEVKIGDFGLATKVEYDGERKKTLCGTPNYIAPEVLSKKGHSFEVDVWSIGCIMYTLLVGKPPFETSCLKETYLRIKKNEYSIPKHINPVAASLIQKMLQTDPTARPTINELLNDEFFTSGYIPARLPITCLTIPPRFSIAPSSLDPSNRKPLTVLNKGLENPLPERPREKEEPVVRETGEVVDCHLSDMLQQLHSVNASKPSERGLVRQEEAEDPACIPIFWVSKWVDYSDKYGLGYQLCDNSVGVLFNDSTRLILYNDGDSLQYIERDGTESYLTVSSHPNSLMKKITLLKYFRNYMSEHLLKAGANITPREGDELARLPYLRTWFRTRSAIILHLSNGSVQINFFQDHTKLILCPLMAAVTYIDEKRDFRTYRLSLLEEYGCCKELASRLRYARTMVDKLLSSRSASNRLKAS
T1 sequence (Q12809 whole entry): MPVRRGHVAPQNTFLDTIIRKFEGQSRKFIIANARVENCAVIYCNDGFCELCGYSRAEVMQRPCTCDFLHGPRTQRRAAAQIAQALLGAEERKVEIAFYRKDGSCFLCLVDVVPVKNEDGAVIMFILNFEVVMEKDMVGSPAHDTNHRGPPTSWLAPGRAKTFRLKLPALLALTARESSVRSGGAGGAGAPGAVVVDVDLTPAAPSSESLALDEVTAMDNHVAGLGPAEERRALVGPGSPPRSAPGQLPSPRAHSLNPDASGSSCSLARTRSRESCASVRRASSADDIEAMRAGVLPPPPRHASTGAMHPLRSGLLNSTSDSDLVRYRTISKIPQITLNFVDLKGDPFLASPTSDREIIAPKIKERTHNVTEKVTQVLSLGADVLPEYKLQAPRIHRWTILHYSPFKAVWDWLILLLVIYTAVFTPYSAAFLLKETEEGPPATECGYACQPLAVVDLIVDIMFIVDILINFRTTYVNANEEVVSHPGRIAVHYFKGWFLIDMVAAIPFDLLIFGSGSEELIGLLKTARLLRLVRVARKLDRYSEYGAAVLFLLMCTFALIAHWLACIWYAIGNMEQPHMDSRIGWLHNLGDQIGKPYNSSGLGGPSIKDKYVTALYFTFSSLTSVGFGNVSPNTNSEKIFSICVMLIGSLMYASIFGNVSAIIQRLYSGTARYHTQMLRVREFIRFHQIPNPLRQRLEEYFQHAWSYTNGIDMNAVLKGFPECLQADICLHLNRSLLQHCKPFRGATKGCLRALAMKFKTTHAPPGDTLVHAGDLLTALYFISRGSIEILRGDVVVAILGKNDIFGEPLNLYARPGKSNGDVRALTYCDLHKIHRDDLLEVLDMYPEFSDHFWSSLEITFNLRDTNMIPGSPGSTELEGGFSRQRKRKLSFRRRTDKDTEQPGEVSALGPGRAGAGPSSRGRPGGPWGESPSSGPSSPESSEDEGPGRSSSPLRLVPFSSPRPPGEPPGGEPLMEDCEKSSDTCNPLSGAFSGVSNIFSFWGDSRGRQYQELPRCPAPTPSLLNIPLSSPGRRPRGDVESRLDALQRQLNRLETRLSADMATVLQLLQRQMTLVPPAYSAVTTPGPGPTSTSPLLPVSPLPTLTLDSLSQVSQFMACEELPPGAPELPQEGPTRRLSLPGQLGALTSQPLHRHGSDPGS

Consider `CCC1(O)C(=O)N(C)c2cnc(Nc3ccc(C(=O)N[C@H]4CC[C@H](N5CCN(CC6CC6)CC5)CC4)cc3OC)nc2N1C(C)C` (some centres unmarked) [compound 12B], for which the pEC50 in assay [1] (mean of 3, read-out: Mean EC50) is 6.56; in assay [1] (setting [3]), 6.51; in assay [1] (setting [4]), 6.47; in assay [1] (setting [5]), 6.76; in assay [2] (mean of 3, read-out: Mean EC50), 6.37; in assay [2] (setting [3]), 6.29. Also, the negative logarithm of the EC50 (pEC50) in assay [2] (setting [4]) is 6.33; in assay [2] (setting [5]), 6.52. In addition, the pIC50 at hERG channel was 5.02; at human Plk1 enzyme (mean of 2 independent experiments, read-out: Mean IC50) it was 8.10; at human Plk1 enzyme (single experiments (experiment number 1, 2), read-out: IC50), 8.09 and 8.10.

One may read the pEC50 as the negative decadic logarithm of the EC50, by convention in mol/L.
